Laboratory results as given in publication PMC5617480 (Oncotarget, 2017).

Test system: TRF1, mutp53, hTERT, TRF2, c-myc, and 53BP1
Assay: Western blot in BEL-7404 xenograft models
Format: in vivo, BALB/c nude mice
Conditions: 8 mg/kg and 4 mg/kg
Method: (E–H) In vivo tumor growth inhibition activity of complex 6 (4.0, 8.0 mg/kg/d) treated of BEL-7402 model with 4.0 and 8.0 mg/kg/d, comparing with cisplatin (2 mg/kg/2 days). (A) and (E). Changes in tumor volume between treatment groups (including complex 6 (4.0, 8.0 mg/kg/d), 5-FU (20 mg/kg/2 days) or cisplatin (2 mg/kg/2 days)) and vehicle (saline) group of BEL-7404 tumor-bearing mice and BEL-7402 tumor-bearing mice. Data of tumor growth were tracked by the mean tumor volume (mm^3) ± SD (n = 6) and calculated as percent TGI (tumor growth inhibition, %) values. (B and F) Relative body weight change by considering the body weight at the start of the treated group as 100%, the percent weight loss or gain was calculated on subsequent days of treatment. (C) and (G) Tumor weight between treatment groups and vehicle (saline) group of BEL-7404 tumor-bearing mice and BEL-7402 tumor-bearing mice. […] (I) The expression protein level of TRF1, mutp53, hTERT, TRF2, c-myc, and 53BP1 were analyzed by western blot in BEL-7404 xenograft models treated with 8 mg/kg and 4 mg/kg complex 6, and 20 mg/kg 5-FU, respectively. (J) The whole-BEL-7404 xenograft model extracts were prepared and analyzed by Western blot analysis using antibodies against TRF1, mutp53, hTERT, TRF2, c-myc, and 53BP1. […] Western blotting bands from three independent measurements were quantified with Image J. in (I). […]

## cis-[PtCl2(S-(–)-FOA)] [complex 6]
  expression of mutp53, c-myc, and hTERT: down-regulated
  protein expression of TRF1, TRF2, and 53BP1: significantly up-regulated
